Assay results reported in patent publication US9938245B2 (THE TRUSTEES OF COLUMBIA UNIVERSITY IN THE CITY OF NEW YORK, priority 2014, dated 2018).
Entries after “also recorded” stand apart in the source; their conditions may differ. One block for each compound: values may come before it.

Tests used:
BJeLR = assay: Concentration-dependent growth inhibition (alamar blue), isogenic BJ cell lines; assay type: cell-based, human; conditions: for IC50: Homo sapiens, BJeLR, 48 h, 2 days, alamar blue
HT1080 = assay: Concentration-dependent growth inhibition (alamar blue), HT1080; assay type: cell-based, human; conditions: Homo sapiens, HT-1080, 48 h, 2 days
Method: Assay plates were prepared by seeding either BJ-derived cell lines or HT-1080 cells at 1,500 cells per well concentration in 36 μL growth medium. Cells in the assay plates were treated with compounds by transferring 4 μL volume from the compound plate. The final concentration of compound was typically 30 μM to 0.9 nM in this 16-point, 2-fold dilution series. Assay plates were returned to the culture incubator and maintained for 2 days before adding alamar blue. […] Plates were incubated further for 16 hours to allow reduction of alamar blue, which results in the generation of red fluorescence. The fluorescence intensity was determined using a Victor 3 plate reader (Perkin Elmer) with a 535 nm excitation filter and a 590 nm emission filter.
Percent growth inhibition (% GI) was calculated from the following formula using the alamar blue fluorescence intensity values. % GI=100*(1−(X−N)/(P−N)) X, cells treated with lethal compound; N, no cells—growth media only; P, no lethal compound—cells only.
The concentration-dependent curves were generated using Prism software. Percent growth inhibition, measured using alamar blue is shown. Error bars indicate one standard deviation of triplicate data.
The results are shown in FIG. 17 and in Table 7 below.

[1] = Compound half-life in liver microsomes; conditions: for half-life at 0.5 μM: mouse, liver microsomes, pH 7.4; for metabolic stability (in words): mouse liver microsomes
system xc− = biological target: T1, system xc− (Homo sapiens, UniProt Q9UPY5); assay: Glutamate release assay (system xc− activity); conditions: read-out: IC50 glutamate release; CCF-STTG1 human astrocytoma cells, 2 hour incubation
T1 sequence (Q9UPY5 1-501): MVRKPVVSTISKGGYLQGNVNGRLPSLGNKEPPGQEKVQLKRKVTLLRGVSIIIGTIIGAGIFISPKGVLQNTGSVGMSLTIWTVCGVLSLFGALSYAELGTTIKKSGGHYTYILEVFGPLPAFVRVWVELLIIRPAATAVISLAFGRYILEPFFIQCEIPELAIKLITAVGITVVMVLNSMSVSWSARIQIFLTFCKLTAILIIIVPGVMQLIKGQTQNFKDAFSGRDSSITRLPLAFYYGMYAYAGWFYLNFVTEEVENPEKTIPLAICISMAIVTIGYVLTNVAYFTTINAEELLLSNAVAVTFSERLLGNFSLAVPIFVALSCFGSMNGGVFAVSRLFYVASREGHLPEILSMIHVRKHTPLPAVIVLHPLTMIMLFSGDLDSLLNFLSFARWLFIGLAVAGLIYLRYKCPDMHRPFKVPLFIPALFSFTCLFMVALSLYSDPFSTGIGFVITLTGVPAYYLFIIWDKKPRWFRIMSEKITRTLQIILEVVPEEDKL
T1 sequence (P08195 1-529 partner): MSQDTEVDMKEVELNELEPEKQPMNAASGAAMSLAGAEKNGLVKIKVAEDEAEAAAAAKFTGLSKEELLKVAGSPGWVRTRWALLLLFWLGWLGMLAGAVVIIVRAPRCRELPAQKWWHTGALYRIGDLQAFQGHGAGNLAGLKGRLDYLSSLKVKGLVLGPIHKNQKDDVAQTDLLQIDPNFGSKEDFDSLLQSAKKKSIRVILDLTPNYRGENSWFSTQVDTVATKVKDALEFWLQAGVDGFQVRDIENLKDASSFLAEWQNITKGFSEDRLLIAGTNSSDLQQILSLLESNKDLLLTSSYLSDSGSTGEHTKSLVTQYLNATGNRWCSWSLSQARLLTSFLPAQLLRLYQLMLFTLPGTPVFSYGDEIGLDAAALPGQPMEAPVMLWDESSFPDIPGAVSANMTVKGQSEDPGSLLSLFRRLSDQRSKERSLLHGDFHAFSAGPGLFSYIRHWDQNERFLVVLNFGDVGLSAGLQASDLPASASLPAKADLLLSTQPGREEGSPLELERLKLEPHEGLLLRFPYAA

[2] = test system: BJeH, BJeHLT, BJeLR, and DRD; assay: RSL testing in 4 BJ-derived cell lines; assay type: cell-based, human
[3] = test system: HT-1080 cells, U-2 OS cells; assay: Cell viability (alamar blue, 24 hours) with modulators of erastin lethality; assay type: cell-based, human; conditions: HT-1080 or U-2 OS cells
GFP-ALOX5 = GFP-ALOX5 translocation assay; assay type: cell-based, human
[4] = test system: xenograft tumors generated from BJeLR cells; assay type: in vivo
Description: . To test our hypothesis that IKE represented a candidate of choice for in vivo studies, we treated xenograft tumors generated from BJeLR cells in nude mice and with IKE compared to vehicle or doxorubicin treatments (as a positive growth suppression control). […] To confirm that growth suppression caused by IKE was due to ferroptotic cell death, we looked at levels of expression of PTGS2, a gene expression marker of ferroptosis. […]

Compound: CC(C)Oc1ccc(C=O)cc1-n1c(CN2CCN(C(=O)COc3ccc(Cl)cc3)CC2)nc2ccccc2c1=O [AE, aldehyde erastin]
- IC50 (BJeLR): 8 nM
- IC50 (HT1080): 39 nM
- half-life at 0.5 μM [1]: < 5 min
- IC50 (system xc−): 60 nM

- metabolic stability (in words) [1]: medium to poor metabolic stability
- half-life at 0.5 μM [1]: 4.2 min
- IC50 (system xc−): 10 nM
Compound: C=CCN1CCN(CC(=O)c2ccc(OC(C)C)c(-n3c(CN4CCN(C(=O)COc5ccc(Cl)cc5)CC4)nc4ccccc4c3=O)c2)CC1 [APKE]
- Selectivity (IC50BJeH/IC50BJeLR) (BJeLR): 1.5
- IC50 (BJeLR): 195 nM

Compound: CCCCS(=N)(=O)CCC(N)C(=O)O (centres unmarked) [BSO, Buthioninesulfoximine]
- RSL phenotype (selective lethality in oncogenic-RAS cells) [2]: RSL phenotype was observed; also recorded: consistently showed an RSL phenotype

- IC50 (HT1080): 61 nM
- metabolic stability (in words) [1]: medium to poor metabolic stability
- half-life at 0.5 μM [1]: 4.7 min
- IC50 (system xc−): 40 nM
Compound: CC(C)Oc1ccc(C(=O)CF)cc1-n1c(CN2CCN(C(=O)COc3ccc(Cl)cc3)CC2)nc2ccccc2c1=O [FKE]

Compound: N[C@@H](CCC(=O)N[C@@H](CS)C(=O)NCC(=O)O)C(=O)O [GSH, reduced glutathione]
- effect on erastin-induced cell death [3]: rescued cells from erastin lethality

Compound: CC(=O)c1ccc(OC(C)C)c(-n2c(CN3CCN(C(=O)COc4ccc(Cl)cc4)CC3)nc3ccccc3c2=O)c1 [KE]
- IC50 (HT1080): 59 nM
- half-life at 0.5 μM [1]: 3.8 min
- IC50 (system xc−): 30 nM

- metabolic stability (in words) [1]: medium to poor metabolic stability
- half-life at 0.5 μM [1]: 23.4 min
- IC50 (system xc−): 10 nM
Compound: CC(C)Oc1ccc(C(=O)CN2CCOCC2)cc1-n1c(CN2CCN(C(=O)COc3ccc(Cl)cc3)CC2)nc2ccccc2c1=O [MKE]
- Selectivity (IC50BJeH/IC50BJeLR) (BJeLR): 5
- IC50 (BJeLR): 427 nM

- IC50 (system xc−): 300 nM
Compound: CC(C)Oc1ccc(C(=O)CN2CCN(C)CC2)cc1-n1c(CN2CCN(C(=O)COc3ccc(Cl)cc3)CC2)nc2ccccc2c1=O [MPKE]
- Selectivity (IC50BJeH/IC50BJeLR) (BJeLR): 1.9
- IC50 (BJeLR): 474 nM

Compound: CC(=O)N[C@@H](CS)C(=O)O [N-acetyl-cysteine]
- effect on erastin-induced cell death [3]: rescued cells from erastin lethality

- metabolic stability (in words) [1]: medium to poor metabolic stability
- half-life at 0.5 μM [1]: 3.4 min
- IC50 (system xc−): 4 nM
Compound: COc1ccc(CN2CCN(CC(=O)c3ccc(OC(C)C)c(-n4c(CN5CCN(C(=O)COc6ccc(Cl)cc6)CC5)nc5ccccc5c4=O)c3)CC2)cc1 [PMB-PKE]
- Selectivity (IC50BJeH/IC50BJeLR) (BJeLR): 13
- IC50 (BJeLR): 13 nM

- IC50 (HT1080): 178 nM
- IC50 (system xc−): 20 nM
Compound: CC(C)Oc1ccc(C(=O)C(F)(F)F)cc1-n1c(CN2CCN(C(=O)COc3ccc(Cl)cc3)CC2)nc2ccccc2c1=O [TFKE]

Compound: C[C@H]1O[C@@H](O[C@H]2[C@@H](O)C[C@H](O[C@H]3[C@@H](O)C[C@H](O[C@H]4CC[C@@]5(C)[C@H](CC[C@@H]6[C@@H]5C[C@@H](O)[C@]5(C)[C@@H](C7=CC(=O)OC7)CC[C@]65O)C4)O[C@@H]3C)O[C@@H]2C)C[C@H](O)[C@@H]1O [digoxin, Digoxin]
- translocation of GFP-ALOX5 to the nuclear membrane (GFP-ALOX5): induced GFP-ALOX5 translocation

Compound: COc1cccc2c1C(=O)c1c(O)c3c(c(O)c1C2=O)C[C@@](O)(C(=O)CO)C[C@@H]3O[C@H]1C[C@H](N)[C@H](O)[C@H](C)O1 [doxorubicin, reference compound]
- overt toxicity (body weight) ([4]; mouse, in vivo): No overt toxicity was observed
- increase in expression of CDKN1A relative to IKE-treated or vehicle-treated mice ([4]; qPCR, xenograft): 5 fold

Compound: C[C@H](CCC(=O)O)C[C@H](C)C[C@H](C)C(=O)/C=C(\O)[C@H](C)C[C@H](C)C/C=C/[C@@H](C)[C@@H](O)[C@@H](C)[C@@H](O)C[C@@H]1CC[C@@](C)([C@H]2CC[C@@](C)([C@@H](C)O)O2)O1 [ionomycin]
- translocation of GFP-ALOX5 to the nuclear membrane (GFP-ALOX5): induced localization of GFP-ALOX5 to the nuclear membrane in all BJ-derived cell lines

Compound: CN[C@@H]1C[C@H]2O[C@@](C)([C@@H]1OC)n1c3ccccc3c3c4c(c5c6ccccc6n2c5c31)C(=O)NC4 [staurosporine, Staurosporine]
- translocation of GFP-ALOX5 to the nuclear membrane (GFP-ALOX5): did not

Compound: lysophosphatidyl choline [lyso-PC]
- RSL phenotype (selective lethality in oncogenic-RAS cells) [2]: did not show differential cytotoxicity
- effect on erastin-induced cell death [3]: modestly sensitized cells to erastin-induced cell death
